Earlier results in the PKSmart pharmacokinetics tables (Seal et al. 2025).
*1 amine or outer side, *2 acyl side, *3 side chain or, on linkers, in order; H or OH if unused. Where a SMILES comes first, the peptide text is derived from it. Bridges are numbered along the chain shown (N, C = ends). [ ]: non-standard residue; d: D form. The star is where a group is joined. ξ: configuration not given here. pTerphenylCO(4''-OnC5H11) = CCCCCOc1ccc(-c2ccc(-c3ccc(C(=O)*)cc3)cc2)cc1; ξOrn(4R-OH,5R-OH) = O=C(C(C[C@@H](O)[C@@H](O)N[*:3])N[*:1])[*:2]; ξhTyr(3S-OH,4S-OH) = NC(C(=O)O)[C@H](O)[C@@H](O)c1ccc(O)cc1; X4 = C[C@H]1CN([*:1])C(C(=O)[*:2])[C@H]1O; ξPro(4R-OH) = O=C(O)C1C[C@@H](O)CN1; ξThr(3R) = C[C@@H](O)C(N)C(=O)O

Test: Lombardo, Berellini, Obach 2018, Drug Metab Dispos 46:1466, doi 10.1124/dmd.118.082966
Details: human; for MRT / Vd / clearance / half-life: in vivo, iv; for fraction unbound: plasma

SMILES	MRT [h]	Vd [L/kg]	clearance [mL/min/kg]	half-life [h]	fraction unbound
O=C1CN=C(c2ccccc2Cl)c2cc(Cl)ccc2N1	220	2.2	0.17	200	0.051
CCC1=C(C)CN(C(=O)NCCc2ccc(S(=O)(=O)NC(=O)N[C@H]3CC[C@H](C)CC3)cc2)C1=O		0.19	0.5	10	
COc1ccc2c(c1)c(CC(=O)O)c(C)n2C(=O)c1ccc(Cl)cc1	1.2	0.096	1.3	1.4	
CCC[C@H](Nc1nc(-c2ccc(NC(=O)NCC)c(OC)c2)ncc1C)c1cccnc1	2.5	3.41	22.2	2.9	
CC(C)(C)NCC(O)COc1cccc2c1CC(O)C(O)C2 (stereo unspecified)	11	1.9	2.9	9.2	0.14
CCn1cnc(C(=O)NC)c1C(=O)NC	1	0.73	12.1	0.83	0.92
C[N+](C)(C)NCCC(=O)[O-]	4.3	0.7	2.8	6.2	
CN(C)[C@@H]1C(O)=C(C(N)=O)C(=O)[C@@]2(O)C(O)=C3C(=O)c4c(O)ccc(Cl)c4[C@@H](O)[C@H]3C[C@@H]12	17	1.3	1.1	12	0.59
Nc1nc(Cl)nc2c1ncn2[C@@H]1O[C@H](CO)[C@@H](O)[C@@H]1F	3.8	1.75	7.7	4	
CN(C)[C@@H](c1cccc(O)c1)[C@H]1CCCC[C@H]1O			2.2	3.85	
c1cc2c(c(N3CCNCC3)c1)OCCO2	10.5	3.6	8	8.2	
CCCCCCCN(CC)CCCC(O)c1ccc(NS(C)(=O)=O)cc1 (stereo unspecified)	7.7	12	26	7	
CN(C)CCNC(=O)c1cccc2cc3ccccc3nc12	3.49	3.41	16.3	2.08	0.03
C=C1/C(=C\C=C2/CCC[C@]3(C)[C@@H]([C@H](C)CCCC(C)(C)O)CC[C@@H]23)C[C@@H](O)C[C@@H]1O	13.3	0.25	0.31	11	
CC[N+]1(CC)CCC(=C(c2ccccc2)c2ccccc2)[C@@H]1C	2.5	1.87	12.5	2.13	
COc1ccc2[n-]c([S@+](O)Cc3ncc(C)c(OC)c3C)nc2c1	0.9	0.2	3.85	0.83	0.03
CC1=C(CO)C2=C(C)C3(CC3)[C@@](C)(O)C(=O)C2=C1	0.4	3.1	140	0.3	
O=C(O)CCCCN(CCc1ccccc1OCc1ccc(CCc2ccccc2)cc1)Cc1ccc(C(=O)O)cc1	0.44	0.24	9	0.25	
CCc1ccc(Cc2ccc3c(c2)[C@]2(OC3)O[C@H](CO)[C@@H](O)[C@H](O)[C@H]2O)cc1	5.1	0.63	2.07	4.7	0.46
CN1CCN(CCCN2c3ccccc3Sc3ccc(Cl)cc32)CC1	23	22	16	9	
Cc1ccc(C(CN)CC(=O)O)cc1 (stereo unspecified)	6.36	0.65	1.7	5.24	0.69
OCCO[C@H]1C[C@@H](n2nnc3c(N[C@@H]4C[C@H]4c4ccc(F)c(F)c4)nc(S)nc32)[C@H](O)[C@@H]1O	6.16	1.25	3.38	6.8	0.002
CNS(=O)(=O)Cc1ccc2[nH]cc(CCCN3CCN(c4ncncc4OC)CC3)c2c1	2.25	0.87	6.44	5.26	
Nc1nc(=O)c2ncn(CCC(CO)CO)c2[nH]1	2.4	1.1	8.4	2.1	

SMILES	MRT [h]	Vd [L/kg]	clearance [mL/min/kg]	half-life [h]	fraction unbound
Cc1nc(=O)c2cc(CN(C)c3ccc(C(=O)NC(CCC(=O)O)C(=O)O)s3)ccc2[nH]1 (stereo unspecified)	123	6.57	0.9	140	0.05
CC(C)=c1nc(N(C)S(C)(=O)=O)nc(-c2ccc(F)cc2)c1=CC[C@@H](O)C[C@@H](O)CC(=O)O	2.6	1.7	11	2	
Cc1ccccc1C(=O)Nc1ccc(C(=O)N2CCC[C@H](O)c3cc(Cl)ccc32)c(C)c1	3.5	0.5	2.4	2.9	0.01
CCCN[C@H]1CCc2nc(N)sc2C1	16.1	7	7.2	12.4	0.85
CCCCCOc1ccc(-c2ccc(-c3ccc(C(=O)NC4C[C@@H](O)[C@@H](O)NC(=O)C5[C@@H](O)[C@@H](C)CN5C(=O)C([C@@H](C)O)NC(=O)C([C@H](O)[C@@H](O)c5ccc(O)cc5)NC(=O)C5C[C@@H](O)CN5C(=O)C([C@@H](C)O)NC4=O)cc3)cc2)cc1 (stereo partly drawn) ({pTerphenylCO(4''-OnC5H11)}-[ξOrn(4R-OH,5R-OH)][ξThr(3R)][ξPro(4R-OH)][ξhTyr(3S-OH,4S-OH)][ξThr(3R)][X4]; lactam 1-C)	45	0.57	0.21	40	
C1COC(NC(C2CC2)C2CC2)=N1	10.6	4.5	7.1	8.3	0.9
O=C(O)C1C[C@@H](C2CCCCC2)CN1C(=O)CP(=O)(O)CCCCc1ccccc1 (stereo partly specified)	6.8	0.13	0.32	9.4	
C[N+]1(C)[C@@H]2CC(OC(=O)C(O)(c3cccs3)c3cccs3)C[C@H]1[C@@H]1O[C@@H]12 (stereo partly specified)	42.3	32			0.28
CC(C)(C)c1nc(-c2cccc(NS(=O)(=O)c3c(F)cccc3F)c2F)c(-c2ccnc(N)n2)s1	3.8	0.65	2.86	2.6	0.003
CC(CCc1ccc2c(c1)OCO2)NCC(O)c1ccc(O)c(C(N)=O)c1 (stereo unspecified)	8.2	7.9	16	11	
CC(=O)Oc1ccc2c3c1O[C@H]1[C@@H](OC(C)=O)C=C[C@H]4[C@@H](C2)N(C)CC[C@@]341	0.1	1.31	212	0.062	
CCOC(=O)C(CCc1ccccc1)NC(C)C(=O)N1CC2(CC1C(=O)O)SCCS2 (stereo unspecified)	0.61	0.43	11.9	8.6	
CC(C)(F)CC(N[C@@H](c1ccc(-c2ccc(S(C)(=O)=O)cc2)cc1)C(F)(F)F)C(=O)NC1(C#N)CC1 (stereo partly specified)	147	1.63	0.19	108	
C[C@H](Cc1cc2c(c(C(N)=O)c1)N(CCCO)CC2)NCCOc1ccccc1OCC(F)(F)F			2.8	3.6	0.05
CCC(=O)NCC[C@@H]1CCc2ccc3c(c21)CCO3	1.3	1.05	13.1	1.9	0.2
Cc1cc(OC[C@H](O)CNC(C)C)c(C)c(C)c1O	3.7	3.6	16.2	3.1	
O=S(=O)(O)CCS	0.52	0.65	20.5	0.36	
Cc1nnc(SCC2=C(C(=O)O)N3C(=O)C(NC(=O)Cn4cc(Cl)c(=O)c(Cl)c4)[C@H]3SC2)s1 (stereo partly specified)	2.3	0.13	0.95	1.91	
CO[C@H]1[C@@H](O)[C@H](N)[C@@H](O[C@H]2O[C@H]([C@H](C)N)CC[C@H]2N)[C@H](O)[C@H]1N(C)C(=O)CN	2.8	0.23	1.37	2	
CC[C@H]1C2C[C@H]3[C@@H]4N(C)c5ccccc5C45C[C@@H](C2[C@H]5O)N3[C@@H]1O (stereo partly specified)	6.8	4	9.8	7.3	0.24
COc1cccc2c1c(NS(=O)(=O)c1ccc(Cl)s1)nn2Cc1cccc(CNC(=O)C(C)(C)O)c1	5.43	1.65	5.1	13.5	
COC(=O)N(C)c1c(N)nc(-c2nn(Cc3ccccc3F)c3ncccc23)nc1N	10	0.44	0.74	9.1	
COc1ccccc1N1CCN(CCCNc2cc(=O)n(C)c(=O)n2C)CC1	4	0.75	3.1	3.5	
C=C(CC)C(=O)c1ccc(OCC(=O)O)c(Cl)c1Cl	0.5	0.26	8.7	0.5	

SMILES	MRT [h]	Vd [L/kg]	clearance [mL/min/kg]	half-life [h]	fraction unbound
O=c1[nH]c(=O)n(C2CCCO2)cc1F (stereo unspecified)	10.8	0.62	0.95	8.69	
O=C1CN=C(c2ccccn2)c2cc(Br)ccc2N1	28	0.85	0.51	21	
O=C1NCC2(CCN(CCc3ccccc3)CC2)O1	19	3	2.6	14	
COc1cccc2c1[C@H](CO)N1[C@H](C#N)[C@@H]3CC(C(=O)O)[C@H]([C@@H]1C2)N3C (stereo partly specified)	1.23	0.23	3.06	1.52	
C[N+]1(C)CCC(OC(=O)C(O)(c2ccccc2)C2CCCC2)C1 (stereo unspecified)	0.37				
O=C(NCCN1CCN=C1c1ccncc1)Nc1ccc(C(=O)O)cc1	3.52	0.35	1.67	4.9	
COC[C@@H](O)CN(C(C)=O)c1c(I)c(C(=O)NC[C@H](O)CO)c(I)c(C(=O)NC[C@H](O)CO)c1I	2.64	0.2	1.27	2.04	1
C[C@@H]1C[C@@H]2[C@@H]3CC=C4CC(=O)C=C[C@]4(C)C3=CC[C@]2(C)C1C(=O)CN1CCN(c2cc(N3CCCC3)nc(N3CCCC3)n2)CC1 (stereo partly specified)	23.2	9.8	7	49.3	0.006
C=C[C@]1(C)C[C@@H](OC(=O)CS[C@@H]2CC[C@@H](N)C[C@H]2O)[C@]2(C)[C@H](C)CC[C@]3(CCC(=O)[C@H]32)[C@@H](C)[C@@H]1O	5.53	1.32	3.96	6.4	0.17
CN(C)[C@@H]1C(O)=C(C(N)=O)C(=O)[C@@]2(O)C(O)=C3C(=O)c4c(O)c(NC(=O)CN5CCCC5)cc(F)c4C[C@H]3C[C@@H]12	10.3	2.3	3.71		0.18
O=C(NC1CCN(CCCCC2(C(=O)NCC(F)(F)F)c3ccccc3-c3ccccc32)CC1)c1ccccc1-c1ccc(C(F)(F)F)cc1	31.2	16.3	8.7	39.7	0.002
O=C(O)CSc1nnc(Br)n1-c1ccc(C2CC2)c2ccccc12	3.33	0.29	1.43	5	0.02
CC(O)C(CO)NC(=O)C1CSSCC(NC(=O)C(N)Cc2ccccc2)C(=O)NC(Cc2ccccc2)C(=O)NC(Cc2c[nH]c3ccccc23)C(=O)NC(CCCCN)C(=O)NC(C(C)O)C(=O)N1 (stereo unspecified)	1.3	0.19	2.38	1.7	0.35
Nc1cc(OCC2CC2)c(C(=O)NC2CN3CCC2CC3)cc1Cl (stereo unspecified)	12.3	3.9	5.2	13.5	
Cn1cc[nH]c1=S	3.8	0.86	3.7	2.4	
CC(C1=C(CCN(C)C)Cc2ccccc21)c1ccccn1 (stereo unspecified)	5.98	2.16	4.83	4.6	
O=C(NCCN1CCOCC1)c1ccc(Cl)cc1	1.8	1.1	10	1.5	
N=C(N)N=c1[nH]c(CSCCC(=N)NS(N)(=O)=O)cs1	3	1.2	6.6	2.8	0.84
O=C(O)CCCc1ccc(N(CCCl)CCCl)cc1	1.5	0.26	2.8	1.1	
O[C@@H]1[C@@H](O)[C@@H](O)OC[C@H]1O	1.9	0.23	2.38	1.2	
Nc1ccn([C@@H]2C=C(CO)[C@@H](O)[C@H]2O)c(=O)n1			3.61		
COc1ccc(C(=O)Nc2ccccc2CCC2CCCCN2C)cc1 (stereo unspecified)	2.8	2.2	13	2.6	
CCCCCc1cc(O)c2c(c1)OC(C)(C)c1ccc(C)cc1-2	15.9	17	17.9	25.5	
